In US20250136618A1, “ANTIBIOTIC PYRAZINOTHIAZINE DERIVATIVES AND PROCESS OF PREPARATION THEREOF” (Bugworks Research India PVT Ltd, priority 2021, published 2025):
In brackets after ≈: the same amount, converted by molar mass.

Columns and labels:
Format in all cases: cell-based
hERG potassium channel = hERG potassium channel (Homo sapiens (Human), UniProt Q12809); test: hERG inhibition assay (Qpatch HTX automated electrophysiology); details: CHO cell line expressing hERG, whole-cell patch clamp
Protocol: Electrophysiological recordings were made from a Chinese Hamster Ovary cell line stably expressing the full-length hERG potassium channel. Single cell ionic currents were measured in whole-cell patch clamp configuration at room temperature (21-23° C.) using the Qpatch HTX platform (Sophion). Intracellular solution contained (mM): 120 KF, 20 KCl, 10 EGTA, 10 HEPES and was buffered to pH 7.3. […] Cells were clamped at a holding potential of −80 mV. Cells were stepped to +20 mV for 2 s then −40 mV for 3 s before returning to the holding potential. […] Compounds were then incubated for 2 minutes prior to a second measurement of ion channel current using an identical pulse train.

CHO-K1 cells = test: In-vitro micronucleus assay; details: for % (in-vitro micronucleus assay) / In vitro micronucleus forming concentration: Chinese hamster
Protocol: Genetic toxicology studies were performed on the compounds of the present disclosure to assess their ability to cause DNA damage. The in-vitro micronucleus assay measured the concentration (μM) of the compound at which micronuclei formation occurred. A micronuclei formation at lower concentration indicates more genetic damage or genotoxicity.
Micronucleus formation is a hallmark of genotoxicity, and the micronucleus assay is an important component of genotoxicity screening. Micronuclei are chromatin-containing bodies that represent fragments or even whole chromosomes that were not incorporated into a daughter cell nucleus at mitosis. The purpose of the assay is to detect agents that induce chromosome damage leading to the induction of micronuclei in interphase cells. The in vitro micronucleus assay was conducted in CHO-K1 cells according to the procedure described by Diaz, D et al [Mutat Res. 630(1-2):1-13. […] The formation of the micronucleus is identified by image-based high content analysis from binucleated cells.

Serratia marcescens = test: MIC90 determination, clinical strains (CLSI); details: Serratia marcescens, N=15, read-out: MIC 90 Serratia marcescens
Citrobacter freundii = test: MIC90 determination, clinical strains (CLSI); details: Citrobacter freundii, N=19, read-out: MIC 90 Citrobacter freundii
Morganella morganii = test: MIC90 determination, clinical strains (CLSI); details: Morganella morganii, N=11, read-out: MIC 90 Morganella morganii
[1] = tested on: Providencia rettgeri, P. stuartii; test: MIC90 determination, clinical strains (CLSI); details: N=12, read-out: MIC 90 Providencia rettgeri, P. stuartii
Acinetobacter baumannii = test: MIC90 determination, clinical strains (CLSI); details: Acinetobacter baumannii, N=38, read-out: MIC 90 Acinetobacter baumannii
[2] = tested on: Klebsiella pneumoniae ATCC 13883; test: Minimum Inhibitory Concentration (MIC) in LB media; details: Klebsiella pneumoniae, ATCC13883, read-out: Minimum Inhibitory Concentration K. pneumoniae ATCC 13883
Description: (§1) The compounds of Formula Ia and Formula Ib are of interest due to their potent antibacterial effects. The ability of the compounds disclosed herein to achieve an antibacterial effect may be evaluated with regard to their ability to inhibit the growth of bacterial species like Escherichia coli ATCC 25922, Staphylococcus aureus ATCC 29213, Klebsiella pneumoniae ATCC 13883, Acinetobacter baumannii ATCC 19606, Pseudomonas aeruginosa ATCC 27853 and Enterococcus faecalis ATCC 29212 using an assay based on the following Minimum Inhibitory Concentration (MIC) protocol:
(§2) The test bacteria were grown in Luria Bertani Broth (HIMEDIA M1245), 25 g of the powder was dissolved in 1000 ml distilled water and sterilized by autoclaving at 15 lbs pressure (121° C.) for 20 minutes. The medium sterility was checked by incubating at 37° C. for a period of 48 h. Bacterial cultures that were stored as glycerol stocks at −80° C. were subcultured on LB agar plates to obtain isolated colonies. A single colony of each strain was cultured in LB broth. The cultures were incubated at 37° C., 200 rpm till they reached an optical density (OD at 600 nm) of 0.8 to 1. This log phase culture was diluted in LB broth to a cell number of 5-8*10^5 CFU/mL to be used as inoculum for MIC experiments. Test compounds were dissolved in dimethyl sulfoxide (DMSO) to a stock concentration of 4 mg/ml. A two-fold dilution series of this DMSO stock was prepared in a 96 well V bottom microtitre plate from rows A to H. A 3 μL volume of these dilutions are transferred to a 96-well flat bottom microtitre assay plate. Controls to monitor the effects of DMSO and media sterility were included. Each well was inoculated with 150 μL of the above diluted culture. The plates were incubated at 37° C. overnight in a humidified incubator. The following morning, the plates were read using a Spectrophotometer at 600 nm wavelength. […] The antibacterial activity (MIC) determined against representative gram-positive (S. aureus, E. faecalis) and gram-negative (E. coli, Aeruginosa, K. pneumoniae, and A. baumannii) pathogen are reported Table 1.

[3] = tested on: Staphylococcus aureus ATCC 29213; test: Minimum Inhibitory Concentration (MIC) in LB media; details: Staphylococcus aureus, ATCC29213, read-out: Minimum Inhibitory Concentration S. aureus ATCC 29213
Description: as §1, §2

[4] = tested on: Pseudomonas aeruginosa ATCC 27853; test: Minimum Inhibitory Concentration (MIC) in LB media; details: Pseudomonas aeruginosa, ATCC27853
Description: as §1, §2

[5] = tested on: Enterococcus faecalis ATCC 29212; test: Minimum Inhibitory Concentration (MIC) in LB media; details: Enterococcus faecalis, ATCC29212, read-out: Minimum Inhibitory Concentration E. faecalis ATCC 29212
Description: as §1, §2

[6] = tested on: Escherichia coli ATCC 25922; test: Minimum Inhibitory Concentration (MIC) in LB media; details: Escherichia coli, ATCC25922, read-out: Minimum Inhibitory Concentration E. coli ATCC 25922
Description: as §1, §2

[7] = tested on: Acinetobacter baumannii ATCC 19606; test: Minimum Inhibitory Concentration (MIC) in LB media; details: Acinetobacter baumannii, ATCC19606
Description: as §1, §2

Proteus mirabilis = test: MIC90 determination, clinical strains (CLSI); details: Proteus mirabilis, N=12, read-out: MIC 90 Proteus mirabilis
Escherichia coli = test: MIC90 determination, clinical strains (CLSI); details: Escherichia coli, N=38, read-out: MIC 90 Escherichia coli
Klebsiella pneumoniae = test: MIC90 determination, clinical strains (CLSI); details: Klebsiella pneumoniae, N=86, read-out: MIC 90 Klebsiella pneumoniae
Enterobacter cloacae = test: MIC90 determination, clinical strains (CLSI); details: Enterobacter cloacae, N=26, read-out: MIC 90 Enterobacter cloacae
Pseudomonas aeruginosa = test: MIC90 determination, clinical strains (CLSI); details: Pseudomonas aeruginosa, N=34, read-out: MIC 90 Pseudomonas aeruginosa
[8] = tested on: Klebsiella aerogenes, K. oxytoca; test: MIC90 determination, clinical strains (CLSI); details: N=17, read-out: MIC 90 Klebsiella aerogenes, K. oxytoca

hERG potassium channel, sequence (Q12809 whole entry): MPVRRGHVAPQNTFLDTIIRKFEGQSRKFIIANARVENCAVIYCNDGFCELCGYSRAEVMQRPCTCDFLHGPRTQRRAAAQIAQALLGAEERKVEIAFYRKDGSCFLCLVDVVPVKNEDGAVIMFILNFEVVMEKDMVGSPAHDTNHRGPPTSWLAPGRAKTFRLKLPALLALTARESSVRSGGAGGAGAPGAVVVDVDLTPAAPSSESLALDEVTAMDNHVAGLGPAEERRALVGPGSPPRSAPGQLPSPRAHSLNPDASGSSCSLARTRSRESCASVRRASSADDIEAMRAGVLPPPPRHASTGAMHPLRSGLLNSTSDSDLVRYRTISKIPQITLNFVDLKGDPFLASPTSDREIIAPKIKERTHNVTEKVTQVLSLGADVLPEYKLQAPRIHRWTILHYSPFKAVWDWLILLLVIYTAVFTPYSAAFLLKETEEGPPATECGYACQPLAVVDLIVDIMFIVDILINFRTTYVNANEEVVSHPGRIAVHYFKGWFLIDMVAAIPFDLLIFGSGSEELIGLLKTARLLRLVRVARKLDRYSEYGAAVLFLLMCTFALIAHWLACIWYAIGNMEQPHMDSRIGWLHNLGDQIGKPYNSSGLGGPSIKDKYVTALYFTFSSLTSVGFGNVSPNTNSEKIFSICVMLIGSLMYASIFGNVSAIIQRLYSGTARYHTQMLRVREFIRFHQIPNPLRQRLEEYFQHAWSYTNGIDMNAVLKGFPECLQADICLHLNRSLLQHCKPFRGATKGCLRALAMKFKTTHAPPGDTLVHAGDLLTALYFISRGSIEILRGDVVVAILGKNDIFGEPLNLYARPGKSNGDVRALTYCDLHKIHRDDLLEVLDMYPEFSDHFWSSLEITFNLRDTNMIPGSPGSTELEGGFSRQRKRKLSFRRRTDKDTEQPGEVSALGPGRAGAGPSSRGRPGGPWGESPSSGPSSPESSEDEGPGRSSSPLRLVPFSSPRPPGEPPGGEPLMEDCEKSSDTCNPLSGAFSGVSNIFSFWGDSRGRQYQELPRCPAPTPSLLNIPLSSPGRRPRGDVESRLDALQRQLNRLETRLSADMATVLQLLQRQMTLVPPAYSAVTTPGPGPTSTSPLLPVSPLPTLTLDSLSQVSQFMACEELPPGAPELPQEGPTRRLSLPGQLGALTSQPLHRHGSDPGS

Row | Compound | IC50 (hERG potassium channel) [µM] | % (in-vitro micronucleus assay) (CHO-K1 cells) [%] | In vitro micronucleus forming concentration (CHO-K1 cells) [µM] | MIC90 (Serratia marcescens) [µg/mL] | MIC90 (Citrobacter freundii) [µg/mL] | MIC90 (Morganella morganii) [µg/mL] | MIC90 [1] [µg/mL] | MIC90 (Acinetobacter baumannii) [µg/mL] | MIC [2] [µg/mL] | MIC [3] [µg/mL] | MIC [4] [µg/mL] | MIC [5] [µg/mL] | MIC [6] [µg/mL] | MIC [7] [µg/mL] | MIC90 (Proteus mirabilis) [µg/mL] | MIC90 (Escherichia coli) [µg/mL] | MIC90 (Klebsiella pneumoniae) [µg/mL] | MIC90 (Enterobacter cloacae) [µg/mL] | MIC90 (Pseudomonas aeruginosa) [µg/mL] | MIC90 [8] [µg/mL] | also measured
1 | Cn1c(=O)cnc2ccc(OCCNC[C@H]3CN(c4cnc5c(n4)NC(=O)CS5)C(=O)O3)nc21 [Compound 1, (S)-5-(((2-((4-Methyl-3-oxo-3,4-dihydropyrido[2,3-b]pyrazin-6-yl)oxy)ethyl)amino)methyl)-3-(3-oxo-3,4-dihydro-2H-pyrazino[2,3-b][1,4]thiazin-6-yl)oxazolidin-2-one, reference compound] | 58 | 1.58 | 32 | 8 (≈ 16.5 µM) | 2 (≈ 4.13 µM) | 1 (≈ 2.06 µM) | 2 (≈ 4.13 µM) | 0.5 (≈ 1.03 µM) | 0.03 (≈ 0.0619 µM) | < 0.03 | 0.5 (≈ 1.03 µM) | 0.1 (≈ 0.206 µM) | 0.03 (≈ 0.0619 µM) | 0.03 (≈ 0.0619 µM) | 4 (≈ 8.26 µM) | 0.5 (≈ 1.03 µM) | 4 (≈ 8.26 µM) | 4 (≈ 8.26 µM) | 2 (≈ 4.13 µM) | 2 (≈ 4.13 µM) | 
2 | Cn1c(=O)ccc2ncc(OCCNC[C@H]3CN(c4cnc5c(n4)NC(=O)CS5)C(=O)O3)nc21 [Compound 2, (S)-5-(((2-((5-Methyl-6-oxo-5,6-dihydropyrido[2,3-b]pyrazin-3-yl)oxy)ethyl)amino)methyl)-3-(3-oxo-3,4-dihydro-2H-pyrazino[2,3-b][1,4]thiazin-6-yl)oxazolidin-2-one, reference compound] | > 150 | 1.67 | 8 | 16 (≈ 33 µM) | 1 (≈ 2.06 µM) | 1 (≈ 2.06 µM) | 4 (≈ 8.26 µM) | 2 (≈ 4.13 µM) | 0.03 (≈ 0.0619 µM) | < 0.03 | 0.5 (≈ 1.03 µM) | 0.03 (≈ 0.0619 µM) | 0.03 (≈ 0.0619 µM) | 0.03 (≈ 0.0619 µM) | 4 (≈ 8.26 µM) | 1 (≈ 2.06 µM) | 4 (≈ 8.26 µM) | 8 (≈ 16.5 µM) | 4 (≈ 8.26 µM) | 2 (≈ 4.13 µM) | 
3 | Cn1c(=O)cnc2ccc(OCCNC[C@@H]3CN(c4cnc5c(n4)NC(=O)CS5)C(=O)O3)nc21 [Compound 3, (R)-5-(((2-((4-methyl-3-oxo-3,4-dihydropyrido[2,3-b]pyrazin-6-yl)oxy)ethyl)amino)methyl)-3-(3-oxo-3,4-dihydro-2H-pyrazino[2,3-b][1,4]thiazin-6-yl)oxazolidin-2-one] |  | 0.81 | >500 | 4 (≈ 8.26 µM) | 1 (≈ 2.06 µM) | 1 (≈ 2.06 µM) | 2 (≈ 4.13 µM) | 0.5 (≈ 1.03 µM) | 0.03 (≈ 0.0619 µM) | < 0.015 | 0.5 (≈ 1.03 µM) | 0.03 (≈ 0.0619 µM) | 0.03 (≈ 0.0619 µM) | 0.03 (≈ 0.0619 µM) | 4 (≈ 8.26 µM) | 0.5 (≈ 1.03 µM) | 4 (≈ 8.26 µM) | 8 (≈ 16.5 µM) | 4 (≈ 8.26 µM) | 4 (≈ 8.26 µM) | genotoxicity risk (in words) (CHO-K1 cells): completely devoid of any genotoxicity risk; micronucleus formation (in words) (CHO-K1 cells): did not induce micronucleus formation
4 | Cn1c(=O)ccc2ncc(OCCNC[C@@H]3CN(c4cnc5c(n4)NC(=O)CS5)C(=O)O3)nc21 [Compound 4, (R)-5-(((2-((5-methyl-6-oxo-5,6-dihydropyrido[2,3-b]pyrazin-3-yl)oxy)ethyl)amino)methyl)-3-(3-oxo-3,4-dihydro-2H-pyrazino[2,3-b][1,4]thiazin-6-yl)oxazolidin-2-one] | > 300 | 0.76 |  | 16 (≈ 33 µM) | 2 (≈ 4.13 µM) | 2 (≈ 4.13 µM) | 2 (≈ 4.13 µM) | 1 (≈ 2.06 µM) | 0.06 (≈ 0.124 µM) | 0.015 (≈ 0.031 µM) | 0.5 (≈ 1.03 µM) | 0.06 (≈ 0.124 µM) | 0.06 (≈ 0.124 µM) | 0.03 (≈ 0.0619 µM) | 4 (≈ 8.26 µM) | 0.5 (≈ 1.03 µM) | 8 (≈ 16.5 µM) | 8 (≈ 16.5 µM) | 4 (≈ 8.26 µM) | 4 (≈ 8.26 µM) | 
